The source of these data is patent publication EP0679649B1, “2,3-Dihydrobenzofuran Derivatives” (Asahi Kasei Kogyo Kabushiki Kaisha, priority 1993, dated 1994).

The subject of series [1] is male Wistar strain rats. Briefly: Anti-depression activity (forced swimming test using rats). In kind it is in vivo, rat. As to conditions: for Time spent in immobile state: 30 minutes before test, observed for 6 minutes, 6 rats, physiological saline 200; for time spent in the immobile state (result in words): hydrochloride, 30 mg/kg and 60 mg/kg p.o. The source says: When a rat is put in a water tank, the rat struggles for its life to get out of the water (that is, the rat starts a "forced swimming"). If the rat finds that it is impossible for him to get out, the rat stops swimming and assumes an immobile state. It has been known that the administration of an antidepressant can cause a violent swimming motion in the rat for getting out of the water, with a result that the time spent in the immobile state is shortened. The shortening of the time in the immobile state of the rat in the forced swimming test by the administration of the antidepressant is well correlated to the clinical anti-depression effect. Accordingly, in developing antidepressants, the forced swimming test using a rat is the most reliable screening method. In the present test, male Wistar strain rats were used. Compounds obtained in Examples 1, 17 and 18 of the present invention (each in the form of a hydrochloride thereof) were, individually, orally administered to a rat. 30 minutes after the administration, the rat was put in a water tank and then, observed for 6 minutes. The time of the rat spent in the immobile state was measured.

For series [2], the target named is adrenaline α1 receptor. Briefly: Affinity for adrenaline α1 receptor (inhibition of 3H-Prazosin binding to rat cerebral cortex membrane fraction). As to conditions: for Ki: rat cerebral cortex membrane fraction, radioligand 3H-Prazosin, compounds tested as hydrochloride salt. How it is done: A male SD strain rat (7-week old; Charles River) was decapitated, and brain was taken out therefrom quickly. Cerebral cortex of the rat was separated and extracted at […] under ice cooling. The extracted cerebral cortex was frozen at -80 °C for 24 hours or longer. This frozen system was gradually thawed under ice cooling and then, 50 mM Tris-HCl buffer (pH 7.4) was added to the brain under ice cooling to obtain a suspension. The resultant suspension was homogenized, and then subjected to centrifugation at 48000 g for 15 minutes, to thereby obtain a precipitate. The precipitate thus obtained was washed twice and resuspended in the same Tris-HCl buffer as used above. […] The total volume amount of the reaction mixture was 1 ml. The resultant reaction mixture was subjected to suction filtration using a Whatman GF/C filter, and the filter was washed three times in 50 mM Tris-HCl buffer (pH 7.4, 4 ml), transferred to a vial and then, the radioactivity of Prazosin absorbed on the filter was determined using a liquid scintillation counter. […] Further, substantially the same procedure as mentioned above was repeated, except that, instead of Prazosin, a test compound was used in a predetermined concentration. […] The binding inhibition ratios were plotted, taking the logarithmic value of the concentration of the test compound as the abscissa value, and the binding inhibition ratio as the ordinate value. Then, a curve was drawn by non-linear least square method.

For series [3], the target named is T1, serotonin 1A receptor (Rattus norvegicus, UniProt P19327).
T1 construct: The resultant precipitate was used as a rat hippocampal membrane fraction in the following procedures; from tissue; host or cells: brain (hippocampal) membrane fraction of male SD rat
T1 sequence (P19327 1-422): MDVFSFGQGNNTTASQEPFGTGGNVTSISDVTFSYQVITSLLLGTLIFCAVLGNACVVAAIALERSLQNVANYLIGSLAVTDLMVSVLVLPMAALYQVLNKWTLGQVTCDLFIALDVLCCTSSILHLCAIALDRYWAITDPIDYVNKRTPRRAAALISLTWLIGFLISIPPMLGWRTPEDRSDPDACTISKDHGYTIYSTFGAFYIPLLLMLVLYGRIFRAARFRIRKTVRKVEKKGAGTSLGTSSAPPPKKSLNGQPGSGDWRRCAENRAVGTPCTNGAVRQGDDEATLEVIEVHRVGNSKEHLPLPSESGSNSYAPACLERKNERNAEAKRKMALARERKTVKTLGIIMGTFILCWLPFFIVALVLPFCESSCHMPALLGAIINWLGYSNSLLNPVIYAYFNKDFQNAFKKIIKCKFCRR
Briefly: Affinity for serotonin 1A receptor (inhibition of 3H-8-OH-DPAT binding to rat hippocampal membrane fraction). As to conditions: radioligand 3H-8-OH-DPAT, compounds tested as hydrochloride salt, read-out: 5-HT1A Ki.

The subject of series [4] is mice. Briefly: Toxicity test (intraperitoneal administration to mice). It counts as in vivo. Particulars: intraperitoneally administered to mice, 100 mg/kg.
Setting [5] is: Dose 30 mg/kg p.o. (hydrochloride), 30 mg/kg.

Consider `O=C(NCCCCNCC1Cc2ccccc2O1)c1ccccc1` (single isomer, unassigned; (+)) [Example 17, (+)-2-{N-(4-benzoylamino)butyl}aminomethyl-2,3-dihydrobenzo[b]furan], for which the “Time spent in immobile state” value in series [1] (Dose 60 mg/kg p.o. (hydrochloride)) was determined as 142 s. Besides, in series [1], the “time spent in the immobile state (result in words)” value (from here on “time spent in the immobile state”) was “remarkably shortened the time spent in the immobile state”.

One may read the Ki as a measure of affinity in units of concentration, obtained from inhibition or displacement. In the case of `O=C(NCCCCNCC1Cc2ccccc2O1)c1ccccc1` (single isomer, unassigned; (-)) [Example 18, (-)-2-{N-(4-benzoylaminobutyl)}aminomethyl-2,3-dihydrobenzo[b]furan], in series [1] (setting [5]), the “Time spent in immobile state” value was determined as 142 s. In addition, in series [1], the “time spent in the immobile state” value is “remarkably shortened the time spent in the immobile state”. In addition, the Ki in series [2] was found to be 270 nM; in series [3], 1.3 nM.

Regarding `O=C(NCCCCNCC1Cc2ccccc2O1)c1ccccc1` (stereo not shown) [Example 1, 2-{N-(4-benzoylaminobutyl)}aminomethyl-2,3-dihydrobenzo[b]furan], the “Time spent in immobile state” value in series [1] (setting [5]) came out at 117 s. In series [1], the “time spent in the immobile state” value is on record as “remarkably shortened the time spent in the immobile state”. In addition, the mortality / toxicity entry in series [4] is on record as “none of the mice died”. The inhibition constant Ki in series [2] came to 350 nM; in series [3], 2.9 nM.

With `O=S(=O)(NCCCCNCC1Cc2ccccc2O1)c1ccccc1` (stereo not shown) [Example 2, 2-{N-(4-benzenesulfonamidobutyl)}aminomethyl-2,3-dihydrobenzo[b]furan], the figures for the inhibitory constant (Ki) in series [2] and in series [3] were 270 nM and 11 nM, respectively.

Consider `Cc1cccc(C(=O)NCCCCNCC2Cc3ccccc3O2)c1` (stereo not shown) [Example 4, 2,3-dihydro-2-[N-{4-(3-methylbenzoylamino)butyl}]aminomethylbenzo[b]furan], for which the inhibition constant Ki in series [2] was determined as 270 nM; in series [3], 1.2 nM.

Regarding `Cc1ccc(C(=O)NCCCCNCC2Cc3ccccc3O2)cc1` (stereo not shown) [Example 5, 2,3-dihydro-2-[N-{4-(4-methylbenzoylamino)-butyl}]aminomethylbenzo[b]furan], the Ki was 290 nM in series [2] and 12 nM in series [3].

Consider `COc1cccc(C(=O)NCCCCNCC2Cc3ccccc3O2)c1` (stereo not shown) [Example 7, 2,3-dihydro-2-[N-{4-(3-methoxybenzoylamino)butyl}]aminomethylbenzo[b]furan], for which the values for the inhibition constant Ki in series [2] and in series [3] were 340 nM and 4.3 nM, respectively.

With `O=C(NCCCCNCC1Cc2ccccc2O1)c1ccccc1F` (stereo not shown) [Example 9, 2,3-dihydro-2-[N-{4-(2-fluorobenzoylamino)butyl}]aminomethylbenzo[b]furan], the results for the Ki in series [2] and in series [3] were 330 nM and 8.2 nM, respectively.

On to `O=C(NCCCCNCC1Cc2ccccc2O1)c1cccc(F)c1` (stereo not shown) [Example 10, 2,3-dihydro-2-[N-{4-(3-fluorobenzoylamino)butyl}]aminomethylbenzo[b]furan], for which the inhibitory constant (Ki) in series [2] was 420 nM; in series [3] it was 3 nM.

On to `O=C(NCCCCNCC1Cc2ccccc2O1)c1ccc(F)cc1` (stereo not shown) [Example 11, 2,3-dihydro-2-[N-{4-(4-fluorobenzoylamino)butyl}]aminomethylbenzo[b]furan], for which the Ki in series [2] was 300 nM; in series [3], 2.6 nM.

In the case of `O=C(NCCCCNCC1Cc2ccccc2O1)c1cccc(C(F)(F)F)c1` (stereo not shown) [Example 13, 2,3-dihydro-2-[N-{4-(3-trifluoromethylbenzoylamino)butyl}]aminomethylbenzo[b]furan], the Ki in series [2] is 380 nM; in series [3] it was 5.3 nM.

In the case of `O=C(NCCCCNCC1Cc2ccccc2O1)c1cccc([N+](=O)[O-])c1` (stereo not shown) [Example 15, 2,3-dihydro-2-[N-{4-(3-nitrobenzoylamino)butyl}]aminomethylbenzo[b]furan], the Ki in series [2] turned out to be 250 nM; in series [3], 11 nM.

Take `O=C(NCCNCC1Cc2ccccc2O1)c1ccccc1` (stereo not shown) [Example 19, 2-{N-(2-benzoylaminoethyl)}aminomethyl-2,3-dihydrobenzo[b]furan]: in series [3], the Ki was determined as 3.7 nM.

Regarding `Cc1cccc(C(=O)NCCNCC2Cc3ccccc3O2)c1` (stereo not shown) [Example 20, 2-[N-{2-(3-methylbenzoylamino)ethyl}]aminomethyl-2,3-dihydrobenzo[b]furan], the Ki in series [3] came to 1.6 nM.

On to `O=C(NCCNCC1Cc2ccccc2O1)c1ccc(F)cc1` (stereo not shown) [Example 21, 2-[N-{2-(4-fluorobenzoyl)aminoethyl}]aminomethyl-2,3-dihydrobenzo[b]furan], for which the Ki in series [3] was determined as 2 nM.

In the case of `O=C(NCCCNCC1Cc2ccccc2O1)c1ccc(F)cc1` (stereo not shown) [Example 23, 2-[N-{3-(4-fluorobenzoylamino)propyl}]aminomethyl-2,3-dihydrobenzo[b]furan], the Ki in series [3] is 12 nM.

Turning to `CN(CCCCNC(=O)c1ccccc1)CC1Cc2ccccc2O1` (stereo not shown) [Example 24, 2-{N-(4-benzoylaminobutyl)-N-methyl}aminomethyl-2,3-dihydrobenzo[b]furan], the Ki in series [2] amounted to 760 nM; in series [3], 11 nM.

Consider `CCN(CCCCNC(=O)c1ccccc1)CC1Cc2ccccc2O1` (stereo not shown) [Example 25, 2-{N-(4-benzoylaminobutyl)-N-ethyl}aminomethyl-2,3-dihydrobenzo[b]furan], for which the Ki is 710 nM in series [2] and 3.1 nM in series [3].

Consider `O=C(NCCCCNCC1Cc2ccccc2O1)c1ccccc1O` (stereo not shown) [Example 29, 2,3-dihydro-2-[N-{4-(2-hydroxybenzoylamino)butyl}]aminomethylbenzo[b]furan], for which the inhibition constant (Ki) in series [2] was 260 nM; in series [3], 5.4 nM.

A word on the Kd: it is a measure of binding affinity in units of concentration. As to ^3H-Prazosin [reference compound], the Kd in series [2] (value used in the Ki calculation, read-out: Kd of the radioactive ligand for the adrenaline α1 receptor) was 0.133 nM.
